PubChem BioAssay AID330 (DTP/NCI, 2004)
Values joined by “and” are separate entries in the source; they are usually repeats but may differ in a detail not shown here. Equal values may be shown once. Toxic doses and inconclusive results are not listed.

Test system: P388 leukemia ip, CD2F1 mice, survival T/C
Test: NCI In Vivo Anticancer Drug Screen. Data for tumor model P388 Leukemia (intraperitoneal) in CD2F1 (CDF1) mice
Conditions: endpoint: median survival time, higher = longer survival
How it was run: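 Mice carrying the transplanted tumor received test compound or vehicle. Survival was recorded in each group, and the value is the treated-group measurement divided by that of the vehicle-treated control group.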

[1] = dose: 100.0 mg/kg/injection, schedule: Q04DX002 (ip), vehicle: saline with Tween-80

O=c1c2ccccc2sc2c1c(N(CCO)CCO)cc1ccccc12
T/C (dose: 25.0 mg/kg/injection, schedule: Q01DX005 (ip), vehicle: distilled water + Tween-80): 102 % of control | T/C (dose: 50.0 mg/kg/injection, schedule: Q01DX005 (ip), vehicle: distilled water + Tween-80): 97 % of control | T/C (dose: 100.0 mg/kg/injection, schedule: Q01DX005 (ip), vehicle: distilled water + Tween-80): 92 % of control

COc1cccc2cc3c(NCCCN(C)C)nnc(NCCCN(C)C)c3cc12
T/C (dose: 7.5 mg/kg/injection, schedule: Q01DX005 (ip), vehicle: saline): 105 % of control | T/C (dose: 15.0 mg/kg/injection, schedule: Q01DX005 (ip), vehicle: saline): 98 % of control

CC(=O)OC1CC2(OC(C)=O)CC(OC2=O)C1OC(C)=O (stereo unspecified)
T/C (dose: 100.0 mg/kg/injection, schedule: Q01DX001 (ip), vehicle: Klucel (hydroxypropylcellulose) (HPC)): 100 % of control | T/C (dose: 100.0 mg/kg/injection, schedule: Q04DX002 (ip), vehicle: Klucel (hydroxypropylcellulose) (HPC)): 100 % of control | T/C (dose: 200.0 mg/kg/injection, schedule: Q01DX001 (ip), vehicle: Klucel (hydroxypropylcellulose) (HPC)): 100 % of control | T/C (dose: 200.0 mg/kg/injection, schedule: Q04DX002 (ip), vehicle: Klucel (hydroxypropylcellulose) (HPC)): 100 % of control | T/C (dose: 400.0 mg/kg/injection, schedule: Q01DX001 (ip), vehicle: Klucel (hydroxypropylcellulose) (HPC)): 99 % of control | T/C (dose: 400.0 mg/kg/injection, schedule: Q04DX002 (ip), vehicle: Klucel (hydroxypropylcellulose) (HPC)): 98 % of control

O=C1Oc2ccccc2C(=O)C1=S1CCCC1
T/C (dose: 50.0 mg/kg/injection, schedule: Q01DX005 (ip), vehicle: Klucel (hydroxypropylcellulose) (HPC)): 98 % of control | T/C (dose: 100.0 mg/kg/injection, schedule: Q01DX005 (ip), vehicle: Klucel (hydroxypropylcellulose) (HPC)): 91 % of control | T/C (dose: 200.0 mg/kg/injection, schedule: Q01DX005 (ip), vehicle: Klucel (hydroxypropylcellulose) (HPC)): 94 % of control

O=C1CSC(c2ccc(O)c(O)c2)N1c1nncs1 (stereo unspecified)
T/C (dose: 25.0 mg/kg/injection, schedule: Q04DX002 (ip), vehicle: saline with Tween-80): 96 % of control | T/C (dose: 50.0 mg/kg/injection, schedule: Q04DX002 (ip), vehicle: saline with Tween-80): 100 % of control | T/C [1]: 98 % of control

c1ccc2c3c(ccc2c1)OCCOCCOc1ccc2ccccc2c1-c1c(ccc2ccccc12)OCCOCCOc1ccc2ccccc2c1-3
T/C [1]: 96 % of control | T/C (dose: 200.0 mg/kg/injection, schedule: Q04DX002 (ip), vehicle: saline with Tween-80): 89 % of control | T/C (dose: 400.0 mg/kg/injection, schedule: Q04DX002 (ip), vehicle: saline with Tween-80): 91 % of control

CC(C)[C@]12O[C@H]1[C@@H]1O[C@]13[C@]1(O[C@H]1C[C@H]1C4=C(C(=O)OC4)[C@@H](O)C[C@@]13C)[C@@H]2O
T/C (dose: 0.03 mg/kg/injection, schedule: Q01DX009 (ip), vehicle: saline + alcohol): 100 % of control and 101 % of control and 119 % of control | T/C (dose: 0.05 mg/kg/injection, schedule: Q01DX009 (ip), vehicle: saline + alcohol): 117 % of control | T/C (dose: 0.06 mg/kg/injection, schedule: Q01DX005 (ip), vehicle: saline + alcohol): 110 % of control | T/C (dose: 0.06 mg/kg/injection, schedule: Q01DX005 (iv), vehicle: saline + alcohol): 107 % of control | T/C (dose: 0.06 mg/kg/injection, schedule: Q01DX009 (ip), vehicle: saline + alcohol): 117 % of control | T/C (dose: 0.1 mg/kg/injection, schedule: Q01DX009 (ip), vehicle: saline + alcohol): 124 % of control | T/C (dose: 0.13 mg/kg/injection, schedule: Q01DX005 (ip), vehicle: saline + alcohol): 122 % of control | T/C (dose: 0.13 mg/kg/injection, schedule: Q01DX005 (iv), vehicle: saline + alcohol): 108 % of control | T/C (dose: 0.25 mg/kg/injection, schedule: Q01DX005 (iv), vehicle: saline + alcohol): 108 % of control | T/C (dose: 0.25 mg/kg/injection, schedule: Q01DX009 (ip), vehicle: saline + alcohol): 157 % of control and 158 % of control | T/C (dose: 0.5 mg/kg/injection, schedule: Q01DX005 (iv), vehicle: saline + alcohol): 116 % of control

CCSc1nc2ccc(N3C(=O)C=CC3=O)cc2s1
T/C (dose: 3.12 mg/kg/injection, schedule: Q01DX009 (ip), vehicle: Klucel (hydroxypropylcellulose) (HPC)): 111 % of control | T/C (dose: 6.25 mg/kg/injection, schedule: Q01DX009 (ip), vehicle: Klucel (hydroxypropylcellulose) (HPC)): 119 % of control | T/C (dose: 12.5 mg/kg/injection, schedule: Q01DX009 (ip), vehicle: Klucel (hydroxypropylcellulose) (HPC)): 115 % of control

Cc1ccc(C(=O)OC(CCN(C)C)c2ccccc2)cc1 (stereo unspecified)
T/C (dose: 50.0 mg/kg/injection, schedule: Q01DX009 (ip), vehicle: saline): 109 % of control | T/C (dose: 100.0 mg/kg/injection, schedule: Q01DX009 (ip), vehicle: saline): 106 % of control
